Holding throughout (format): cell-based
In one test the target is T1, mouse SMO^WT (Mus musculus, UniProt P56726).
T1 construct: expressed in transfected cells
Put plainly: Mouse assay: Gli1 qPCR in MEF cells stably expressing mouse SMO WT. Particulars: mSHh-treated, 24 hours; for IC50: Gli1 inhibition by qPCR, read-out: Mouse WT pIC50 (converted); for Mouse WT % Inh: percentage Gli1 inhibition. Put shortly: (§1)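 MEFs stably expressing the SMO variant pre-treated with compound 1 h, then stimulated with mSHh and incubated 24 h at 37 °C. Gli1 mRNA quantified by one-step TaqMan qPCR with Gusb reference, four replicates per concentration; expressed as % Gli1 inhibition relative to mSHh-treated controls.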
For orientation: Real-time PCR tracks product formation cycle by cycle.

The target of another test is T2, mouse SMO^D473H (Mus musculus, UniProt P56726, D477H).
T2 construct: expressed in transfected cells
T2 sequence (P56726 33-793 D477H): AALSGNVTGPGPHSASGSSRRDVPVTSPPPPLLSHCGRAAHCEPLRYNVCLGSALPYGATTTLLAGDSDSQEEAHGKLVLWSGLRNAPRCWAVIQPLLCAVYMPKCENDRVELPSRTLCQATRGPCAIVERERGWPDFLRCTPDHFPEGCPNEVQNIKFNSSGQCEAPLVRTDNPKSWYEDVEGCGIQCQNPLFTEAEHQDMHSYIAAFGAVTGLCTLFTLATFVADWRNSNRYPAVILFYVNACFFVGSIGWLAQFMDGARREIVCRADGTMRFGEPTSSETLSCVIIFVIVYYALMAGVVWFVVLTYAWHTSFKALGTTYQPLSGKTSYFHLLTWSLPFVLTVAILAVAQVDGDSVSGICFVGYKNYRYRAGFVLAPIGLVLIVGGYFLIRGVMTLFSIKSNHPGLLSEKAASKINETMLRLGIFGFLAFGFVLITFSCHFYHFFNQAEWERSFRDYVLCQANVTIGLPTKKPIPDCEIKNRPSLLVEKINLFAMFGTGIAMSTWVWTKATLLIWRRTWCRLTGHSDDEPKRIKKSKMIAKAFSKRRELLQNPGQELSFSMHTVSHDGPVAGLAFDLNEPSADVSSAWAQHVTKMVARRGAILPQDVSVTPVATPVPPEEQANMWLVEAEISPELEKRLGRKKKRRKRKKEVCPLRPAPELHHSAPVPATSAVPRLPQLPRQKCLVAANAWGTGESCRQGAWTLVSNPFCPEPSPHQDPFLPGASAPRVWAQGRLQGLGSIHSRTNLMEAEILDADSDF
Put plainly: Mouse assay: Gli1 qPCR in MEF cells stably expressing mouse SMO D473H. The conditions noted are these: mSHh-treated, 24 hours; for IC50: Gli1 inhibition by qPCR, read-out: Mouse D473H pIC50 (converted); for Mouse D473H % Inh: percentage Gli1 inhibition. Put shortly:
as §1

In another test the target is T3, mouse SMO^W535L (Mus musculus, UniProt P56726, W539L).
T3 construct: expressed in transfected cells
T3 sequence (P56726 33-793 W539L): as the sequence (P56726 33-793 D477H) above, with H445D, W507L counted along it
Put plainly: Mouse assay: Gli1 qPCR in MEF cells stably expressing mouse SMO W535L. The conditions noted are these: mSHh-treated, 24 hours; for IC50: Gli1 inhibition by qPCR, read-out: Mouse W535L pIC50 (converted); for Mouse W535L % Inh: percentage Gli1 inhibition. Put shortly:
as §1

The target in another test is T4, hSMO WT (Homo sapiens, UniProt Q99835).
T4 construct: expressed in transfected cells; host or cells: SMO knock-out mouse embryonic fibroblasts (MEF SMO-/-), BacMam transduction
T4 sequence (Q99835 28-787): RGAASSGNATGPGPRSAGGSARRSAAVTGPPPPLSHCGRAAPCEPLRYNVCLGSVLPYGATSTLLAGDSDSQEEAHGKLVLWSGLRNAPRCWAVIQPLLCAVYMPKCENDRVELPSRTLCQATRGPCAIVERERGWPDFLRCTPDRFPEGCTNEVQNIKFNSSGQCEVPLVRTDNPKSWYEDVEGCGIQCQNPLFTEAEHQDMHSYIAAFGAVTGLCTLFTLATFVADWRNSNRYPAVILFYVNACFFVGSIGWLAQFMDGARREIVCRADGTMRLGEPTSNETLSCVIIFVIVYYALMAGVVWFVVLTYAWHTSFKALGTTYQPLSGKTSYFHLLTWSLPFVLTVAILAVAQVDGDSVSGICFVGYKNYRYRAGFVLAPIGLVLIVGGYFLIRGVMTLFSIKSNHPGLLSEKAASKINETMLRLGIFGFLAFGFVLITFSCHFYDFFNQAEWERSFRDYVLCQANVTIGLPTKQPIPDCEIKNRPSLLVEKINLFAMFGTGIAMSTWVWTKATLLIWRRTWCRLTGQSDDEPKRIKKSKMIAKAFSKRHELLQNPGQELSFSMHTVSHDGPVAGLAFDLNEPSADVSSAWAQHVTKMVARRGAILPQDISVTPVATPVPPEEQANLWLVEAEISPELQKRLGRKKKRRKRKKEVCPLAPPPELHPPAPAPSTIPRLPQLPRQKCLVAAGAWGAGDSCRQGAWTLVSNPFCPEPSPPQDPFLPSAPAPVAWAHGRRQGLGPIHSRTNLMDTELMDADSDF
Put plainly: Human assay: Gli1 qPCR in MEF SMO-/- cells BacMam-transduced with hSMO WT. Particulars: mSHh-treated, 24 hours; for IC50: Gli1 inhibition by qPCR, read-out: Human WT pIC50 (converted); for Human WT % Inh: percentage Gli1 inhibition. How it is done:
(§2) Cell culture. All materials were purchased from Sigma-Aldrich, unless otherwise stated. SMO knock-out mouse embryonic fibroblasts (MEF^SMO−/−) were maintained in Dulbecco's modified Eagle's medium (DMEM)/high-glucose medium supplemented with 10% foetal bovine serum (FBS, Invitrogen), 50 U/mL penicillin and 5 mg/mL streptomycin (supplied as a mixture), 0.1 mMMEM Non-Essential Amino Acids (supplied as 100× solution, ThermoFisher) and 1 mM sodium pyruvate at 37° C. in a humidified 95% air/5% CO2 atmosphere.
(§3) BacMam transduction and compound treatment. MEF^SMO−/− cells were transduced with BacMam virus (MOI 1:10 in the presence of 4.2 mM valproic acid) containing either the hSMO WT or desired receptor variant sequence. Transduced cells were seeded at 6000 cells per well in a Poly-D-Lysine coated 384-well plate (Greiner) before the spent culture medium was removed on the following day and replaced with assay medium (OptiMEM (Gibco) supplemented with 50 U/mL penicillin and 5 mg/mL streptomycin (supplied as a mixture), 0.1 mMMEM Non-Essential Amino Acids (supplied as 100× solution, ThermoFisher), 1 mM sodium pyruvate and 10 mM HEPES) containing test compounds at 2.5× final assay concentrations. After 1 hour incubation, cells were treated with assay medium containing mSHh prepared at 2.5× of final assay concentrations specified in the text and incubated for a further 24 hours at 37° C. in a humidified 95% air/5% ° C.2 atmosphere prior to qPCR analysis.
(§4) Cell lysis and one-step qPCR. The Cells-to-CT™ 1-Step TaqMan® Kit was used in conjunction with TaqMan primer-probe assays for the detection of Gill (FAM, Mm00494654_m1) and Gusb (VIC, Mm01197698_m1) genes (all purchased from Life Technologies). Following 24 hours cell treatment, spent medium was removed and cells were washed with PBS before the application of lysis and stop solution as per manufacturer's instructions. The qPCR reactions were run in a 384-well PCR plate using master mix prepared according to manufacturer's instructions and cell lysate samples from treatment wells. Real-time PCR amplification was detected using the Bio-Rad CFX384 Touch PCR system. Four experimental replicates (two cell replicates and two qPCR replicates) were performed for each compound concentration tested. Real-time data were analysed using the CFX Maestro software (Bio-Rad) and obtained expression values were converted to percentage Gill inhibition by normalising to the average Gill expression of mSHh-treated control samples

A further test deals with T5, human SMO D473H (Homo sapiens, UniProt Q99835, D473H).
T5 construct: expressed in transfected cells; host or cells: SMO knock-out mouse embryonic fibroblasts (MEF SMO-/-), BacMam transduction
T5 sequence (Q99835 28-787 D473H): as the sequence (Q99835 28-787) above, with D446H counted along it
Put plainly: Human assay: Gli1 qPCR in MEF SMO-/- cells BacMam-transduced with hSMO D473H variant. The conditions noted are these: mSHh-treated, 24 hours; for IC50: Gli1 inhibition by qPCR, read-out: Human D473H pIC50 (converted); for Human D473H % Inh: percentage Gli1 inhibition. On the procedure: Cell culture. All materials were purchased from Sigma-Aldrich, unless otherwise stated.
as §3, with “concentrations.” for “concentrations. After 1 hour incubation, cells were treated with assay medium containing mSHh prepared at 2.5× of final assay concentrations specified in the text and incubated for a further 24 hours at 37° C. in a humidified 95% air/5% ° C.2 atmosphere prior to qPCR analysis.”
as §4

The next test deals with T6, human SMO W535L (Homo sapiens, UniProt Q99835, W535L).
T6 construct: expressed in transfected cells; host or cells: SMO knock-out mouse embryonic fibroblasts (MEF SMO-/-), BacMam transduction
T6 sequence (Q99835 28-787 W535L): as the sequence (Q99835 28-787) above, with W508L counted along it
Briefly: Human assay: Gli1 qPCR in MEF SMO-/- cells BacMam-transduced with hSMO W535L variant. The conditions noted are these: mSHh-treated, 24 hours; for IC50: Gli1 inhibition by qPCR, read-out: Human W535L pIC50 (converted); for Human W535L % Inh: percentage Gli1 inhibition. How it is done: as §2, §3, §4

T1 sequence (P56726 33-793): as the sequence (P56726 33-793 D477H) above, with H445D counted along it

As to `Cc1oc(-c2ccc(NC(=O)c3ccc(F)c(CN4CCS(=O)(=O)CC4)c3)cc2)nc1C1CC1` [Example 4-3, N-[4-(4-Cyclopropyl-5-methyl-1,3-oxazol-2-yl)phenyl]-3-[(1,1-dioxo-1,4-thiazinan-4-yl)methyl]-4-fluorobenzamide], at mouse SMO^WT, the IC50 was 0.2 nM and the “Mouse WT % Inh” value is recorded as 97.1%. For the same molecule, on mouse SMO^D473H, the IC50 is 2 nM and the “Mouse D473H % Inh” value is recorded as 97.4%. Also, at mouse SMO^W535L, the IC50 is 10 nM and the “Mouse W535L % Inh” value is reported as 71.9%. Further, on hSMO WT, the IC50 was 0.316 nM and the “Human WT % Inh” value was 93.6%. At human SMO D473H, the IC50 was 25.1 nM and the “Human D473H % Inh” value came out at 103.2%. At human SMO W535L, the IC50 is 12.6 nM and the “Human W535L % Inh” value is listed as 95.6%.
Take `CC(C)c1noc(-c2ccc(NC(=O)c3cccc(CN4CCS(=O)(=O)CC4)c3)cc2)n1` [Example 4-10, 3-[(1,1-Dioxo-1,4-thiazinan-4-yl)methyl]-N-[4-(3-propan-2-yl-1,2,4-oxadiazol-5-yl)phenyl]benzamide]: on mouse SMO^WT, the IC50 was 6.31 nM and the “Mouse WT % Inh” value is 97.8%. Further, at mouse SMO^D473H, the IC50 is 12.6 nM and the “Mouse D473H % Inh” value was 98.1%. For the same molecule, on mouse SMO^W535L, the IC50 is 63.1 nM and the “Mouse W535L % Inh” value turned out to be 54.8%. Further, on hSMO WT, the IC50 was 5.01 nM and the “Human WT % Inh” value is recorded as 88.4%. For the same molecule, at human SMO D473H, the IC50 is 50.1 nM and the “Human D473H % Inh” value worked out at 100.2%. Also, on human SMO W535L, the IC50 is 12.6 nM and the “Human W535L % Inh” value is listed as 77.8%.
With `O=C(Nc1ccc(-c2noc(Cc3ccc(F)cc3)n2)cc1)c1cccc(CN2CCS(=O)(=O)CC2)c1` [Example 4-17, 3-[(1,1-Dioxo-1,4-thiazinan-4-yl)methyl]-N-[4-[5-[(4-fluorophenyl)methyl]-1,2,4-oxadiazol-3-yl]phenyl]benzamide], at mouse SMO^WT, the IC50 was 2 nM and the “Mouse WT % Inh” value turned out to be 97.2%. In addition, at mouse SMO^D473H, the IC50 was 7.94 nM and the “Mouse D473H % Inh” value stood at 97.4%. Also, on mouse SMO^W535L, the IC50 was 6.31 nM and the “Mouse W535L % Inh” value is recorded as 68.6%. In addition, on hSMO WT, the IC50 is 0.794 nM and the “Human WT % Inh” value was 99.3%. On human SMO D473H, the IC50 is 39.8 nM and the “Human D473H % Inh” value is 114.2%. In addition, at human SMO W535L, the IC50 is 20 nM and the “Human W535L % Inh” value is on record as 102.7%.
As for `O=C(Nc1ccc(-c2cc(C3CC3)n[nH]2)cc1)c1cccc(CN2CCS(=O)(=O)CC2)c1` [Example 4-19, N-[4-(5-Cyclopropyl-1H-pyrazol-3-yl)phenyl]-3-[(1,1-dioxo-1,4-thiazinan-4-yl)methyl]benzamide], on mouse SMO^WT, the IC50 was 5.01 nM and the “Mouse WT % Inh” value is 96.8%. In addition, at mouse SMO^D473H, the IC50 was 15.8 nM and the “Mouse D473H % Inh” value is listed as 97.7%. Moreover, at mouse SMO^W535L, the IC50 was 10 nM and the “Mouse W535L % Inh” value is recorded as 59.5%. On hSMO WT, the IC50 was 3.16 nM and the “Human WT % Inh” value is listed as 95.4%. Further, at human SMO D473H, the IC50 is 100 nM and the “Human D473H % Inh” value is reported as 107.1%. In addition, on human SMO W535L, the IC50 was 12.6 nM and the “Human W535L % Inh” value amounted to 86.3%.
Consider `Cc1c(-c2ccc(NC(=O)c3ccc(Cl)c(CN4CCS(=O)(=O)CC4)c3)cc2)n[nH]c1C1CC1` [Example 4-22, 4-chloro-N-[4-(5-cyclopropyl-4-methyl-1H-pyrazol-3-yl)phenyl]-3-[(1,1-dioxo-1,4-thiazinan-4-yl)methyl]benzamide], for which, at mouse SMO^WT, the IC50 was 2 nM and the “Mouse WT % Inh” value stood at 97.0%. Besides, on mouse SMO^D473H, the IC50 was 5.01 nM and the “Mouse D473H % Inh” value is on record as 97.6%. Besides, on mouse SMO^W535L, the IC50 is 3.98 nM and the “Mouse W535L % Inh” value worked out at 49.2%. On hSMO WT, the IC50 is 1.26 nM and the “Human WT % Inh” value stood at 98.6%. On human SMO D473H, the IC50 is 100 nM and the “Human D473H % Inh” value turned out to be 111.1%. Moreover, on human SMO W535L, the IC50 was 15.8 nM and the “Human W535L % Inh” value stood at 89.9%.
In the case of `Cc1c(-c2ccc(NC(=O)c3ccc(Cl)c(CN4CCS(=O)(=O)CC4)c3)cc2)nn(C)c1C1CC1` [Example 4-26, 4-Chloro-N-[4-(5-cyclopropyl-1,4-dimethylpyrazol-3-yl)phenyl]-3-[(1,1-dioxo-1,4-thiazinan-4-yl)methyl]benzamide], on mouse SMO^WT, the IC50 is 0.794 nM and the “Mouse WT % Inh” value is given as 97.0%. In addition, at mouse SMO^D473H, the IC50 was 6.31 nM and the “Mouse D473H % Inh” value turned out to be 97.6%. Besides, at mouse SMO^W535L, the IC50 is 5.01 nM and the “Mouse W535L % Inh” value was 58.6%. Further, on hSMO WT, the IC50 is 0.794 nM and the “Human WT % Inh” value was found to be 99.2%. For the same molecule, at human SMO D473H, the IC50 was 63.1 nM and the “Human D473H % Inh” value is recorded as 111.9%. Also, at human SMO W535L, the IC50 was 6.31 nM and the “Human W535L % Inh” value was found to be 92.5%.

The values are drawn from US20250136559A1, “SMO MODULATOR COMPOUNDS” (OMASS THERAPEUTICS LIMITED, priority 2022, published 2025).
